Publication PMC12307812 (Nature Communications, 2025)
Read-outs that look alike come from different tables or passages of the source.

How the values were obtained:
[1] = system: pseudovirus bearing S protein of SARS-CoV-1; assay: organism not typed; format: cell-based
[2] = system: pseudovirus bearing S protein of SARS-CoV-2 lineage EG.5.1; assay: organism not typed; format: cell-based; settings: for IC50: Calu-3 cells
[3] = system: pseudovirus bearing S protein of HCoV-NL63; assay: organism not typed; format: cell-based
[4] = system: vesicular stomatitis virus (VSV); format: cell-based; settings: VSV
[5] = system: pseudovirus bearing S protein of HCoV-229E; assay: organism not typed; format: cell-based
[6] = system: pseudovirus bearing S protein of MERS-CoV; assay: organism not typed; format: cell-based
[7] = system: pseudovirus bearing S protein of SARS-CoV-2 lineage BA.2.86; assay: organism not typed; format: cell-based
[8] = target: T1, Recombinant Human TMPRSS2 (Homo sapiens, UniProt O15393); assay: TMPRSS2 biochemical assay (Boc-Gln-Ala-Arg-AMC fluorogenic substrate)
T1 construct: human TMPRSS2 residues 106492, N-terminal 6x His-tag; 6x His-tag (N); purchased Cusabio CSB-YP023924HU; host or cells: yeast
T1 sequence (O15393 106-492 limits assumed): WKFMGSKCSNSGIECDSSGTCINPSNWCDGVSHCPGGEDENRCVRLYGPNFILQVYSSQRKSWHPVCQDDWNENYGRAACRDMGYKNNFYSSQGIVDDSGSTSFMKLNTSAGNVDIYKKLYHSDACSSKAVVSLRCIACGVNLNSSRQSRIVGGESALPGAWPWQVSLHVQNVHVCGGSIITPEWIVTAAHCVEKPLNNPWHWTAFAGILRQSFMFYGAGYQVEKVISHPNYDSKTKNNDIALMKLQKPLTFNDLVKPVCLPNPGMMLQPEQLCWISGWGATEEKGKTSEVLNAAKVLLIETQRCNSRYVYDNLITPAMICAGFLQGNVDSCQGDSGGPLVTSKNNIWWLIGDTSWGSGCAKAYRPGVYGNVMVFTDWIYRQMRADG
Protocol: Inhibitors of TMPRSS2 were tested using a high throughput activity assay. […] TMPRSS2 (5 µl, 0.018 mg/ml) in assay buffer (50 mM Tris pH 8, 150 mM NaCl, 0.01% Tween20) was dispensed to that, using a BioRAPTR (Beckman Coulter), for a total assay volume of 5 µl.
After incubation at room temperature for 1 h, fluorescence was measured. […] Raw plate reads for each titration point were normalized relative to a positive control containing no enzyme (0% activity, full inhibition) and a negative control containing DMSO-only wells (100% activity, basal activity). Data normalization was performed using GraphPad Prism (GraphPad Software, San Diego, CA).
We employed the curve fitting algorithm available in the SciPy package (version 1.10.1)[61] to derive the Hill slope and the IC50 value, along with their corresponding error estimates.

[9] = system: pseudovirus bearing VSV-G; assay: organism not typed; format: cell-based; settings: Calu-3
[10] = system: pseudovirus bearing S protein of SARS-CoV-2 lineage B.1.617.2; assay: organism not typed; format: cell-based
[11] = Calu-3, read-out: mean inhibition

Work on `CN(C)C(=O)COC(=O)Cc1ccc(OC(=O)c2ccc(NC(=N)N)cc2)cc1` [camostat] yielded an IC50 ([1]; Calu-3, read-out: IC50 estimate, pseudovirus cell entry SARS-1-S) of 0.193 ± 0.0704 µM, an inhibition at 0.00025 µM ([1]; Calu-3, concentration 0.25 nM) of 3.15% and an inhibition at 0.0025 µM ([1]; Calu-3, concentration 2.5 nM) of 5.85%. For the same molecule, the inhibition at 0.025 µM ([1]; Calu-3, concentration 25 nM) was 19.9%, the inhibition at 0.25 µM ([1]; Calu-3, concentration 250 nM) was 63.5% and the inhibition at 2.5 µM ([1]; Calu-3, concentration 2500 nM) was 76.2%. The inhibition at 25 µM ([1]; Calu-3, concentration 25000 nM) was 83.2%, the inhibition at 0.00025 µM ([2]; Calu-3, EG.5.1, concentration 0.25 nM) was 3.95% and the inhibition at 0.0025 µM ([2]; Calu-3, EG.5.1, concentration 2.5 nM) was -5.66%. The inhibition at 0.025 µM ([2]; Calu-3, EG.5.1, concentration 25 nM) was 19.1%, the inhibition at 0.25 µM ([2]; Calu-3, EG.5.1, concentration 250 nM) was 34.3% and the inhibition at 2.5 µM ([2]; Calu-3, EG.5.1, concentration 2500 nM) was 43.1%. For the same molecule, the inhibition at 25 µM ([2]; Calu-3, EG.5.1, concentration 25000 nM) was 52.7%, the IC50 ([2]; Fig. 4g, read-out: IC50 estimate, pseudovirus cell entry EG.5.1) was 8.56 ± 6.54 µM and the IC50 ([2]; read-out: IC50, EG.5.1-S protein-driven Calu-3 cell entry) was 8.56 µM. For the same molecule, the IC50 ([3]; Calu-3, read-out: IC50 estimate, pseudovirus cell entry NL63-S) was 0.806 ± 0.263 µM, the inhibition at 0.00025 µM [3, 11] was -3.23% and the inhibition at 0.0025 µM [3, 11] was 5.92%. It also gave an inhibition at 0.025 µM [3, 11] of 15.4%, an inhibition at 0.25 µM [3, 11] of 41.9% and an inhibition at 2.5 µM [3, 11] of 66.4%. For the same molecule, the inhibition at 25 µM [3, 11] was 73.2%, the “mean log10(PFU/ml)” value ([4]; concentration 5 nM) was 9.003 log10(PFU/ml) and the “mean log10(PFU/ml)” value ([4]; concentration 50 nM) was 8.994 log10(PFU/ml). The “mean log10(PFU/ml)” value ([4]; concentration 500 nM) was 9.01 log10(PFU/ml), the “mean log10(PFU/ml)” value ([4]; concentration 5000 nM) was 9.013 log10(PFU/ml) and the “mean log10(PFU/ml)” value ([4]; concentration 50000 nM) was 8.989 log10(PFU/ml). The IC50 ([5]; Calu-3, read-out: IC50 estimate, pseudovirus cell entry 229E-S) was 2.01 ± 0.177 µM, the inhibition at 0.00025 µM [5, 11] was 1.18% and the inhibition at 0.0025 µM [5, 11] was 7.64%. The inhibition at 0.025 µM [5, 11] was 11.6%, the inhibition at 0.25 µM [5, 11] was 30.5% and the inhibition at 2.5 µM [5, 11] was 52.3%. The inhibition at 25 µM [5, 11] was 73.8%, the IC50 ([6]; Calu-3, read-out: IC50 estimate, pseudovirus cell entry MERS-S) was 0.189 ± 0.0123 µM and the inhibition at 0.00025 µM ([6]; Calu-3, concentration 0.25 nM) was 0.136%. It also gave an inhibition at 0.0025 µM ([6]; Calu-3, concentration 2.5 nM) of 2.04%, an inhibition at 0.025 µM ([6]; Calu-3, concentration 25 nM) of 13.3% and an inhibition at 0.25 µM ([6]; Calu-3, concentration 250 nM) of 57.4%. For the same molecule, the inhibition at 2.5 µM ([6]; Calu-3, concentration 2500 nM) was 89.2%, the inhibition at 25 µM ([6]; Calu-3, concentration 25000 nM) was 95.7% and the inhibition at 0.00025 µM ([7]; Calu-3, BA.2.86, concentration 0.25 nM) was 2.77%. For the same molecule, the inhibition at 0.0025 µM ([7]; Calu-3, BA.2.86, concentration 2.5 nM) was 3.7%, the inhibition at 0.025 µM ([7]; Calu-3, BA.2.86, concentration 25 nM) was 24% and the inhibition at 0.25 µM ([7]; Calu-3, BA.2.86, concentration 250 nM) was 61.2%. It also gave an inhibition at 2.5 µM ([7]; Calu-3, BA.2.86, concentration 2500 nM) of 85.5%, an inhibition at 25 µM ([7]; Calu-3, BA.2.86, concentration 25000 nM) of 85.8% and an IC50 ([7]; Calu-3 cells, read-out: IC50, pseudovirus cell entry BA.2.86) of 0.148 µM. It also gave an inhibition at 0.000677404 µM ([8]; concentration 0.677404 nM) of 13.8%, an inhibition at 0.00203221 µM ([8]; concentration 2.03221 nM) of 36.1% and an inhibition at 0.00609663 µM ([8]; concentration 6.09663 nM) of 68.3%. It also gave an inhibition at 0.0182899 µM ([8]; concentration 18.2899 nM) of 90.6%, an inhibition at 0.0548697 µM ([8]; concentration 54.8697 nM) of 102% and an inhibition at 0.164609 µM ([8]; concentration 164.609 nM) of 103%. For the same molecule, the inhibition at 0.493827 µM ([8]; concentration 493.827 nM) was 105%, the inhibition at 1.48148 µM ([8]; concentration 1481.48 nM) was 105% and the inhibition at 4.44444 µM ([8]; concentration 4444.44 nM) was 104%. The inhibition at 13.3333 µM ([8]; concentration 13333.3 nM) was 104%, the inhibition at 40 µM ([8]; concentration 40000 nM) was 104% and the inhibition at 0.00025 µM ([9]; concentration 0.25 nM) was 0.261%. For the same molecule, the inhibition at 0.0025 µM ([9]; concentration 2.5 nM) was -1.2%, the inhibition at 0.025 µM ([9]; concentration 25 nM) was -0.393% and the inhibition at 0.25 µM ([9]; concentration 250 nM) was -0.191%. The inhibition at 2.5 µM ([9]; concentration 2500 nM) was -0.407%, the inhibition at 25 µM ([9]; concentration 25000 nM) was -1.53% and the inhibition at 0.00025 µM ([10]; Calu-3, B.1.617.2, concentration 0.25 nM) was -0.882%. For the same molecule, the inhibition at 0.0025 µM ([10]; Calu-3, B.1.617.2, concentration 2.5 nM) was 3.07%, the inhibition at 0.025 µM ([10]; Calu-3, B.1.617.2, concentration 25 nM) was 10.5% and the inhibition at 0.25 µM ([10]; Calu-3, B.1.617.2, concentration 250 nM) was 57.9%. For the same molecule, the inhibition at 2.5 µM ([10]; Calu-3, B.1.617.2, concentration 2500 nM) was 90.4%, the inhibition at 25 µM ([10]; Calu-3, B.1.617.2, concentration 25000 nM) was 96.4% and the IC50 ([10]; Calu-3 cells, read-out: IC50, pseudovirus cell entry B.1.617.2) was 0.191 µM.
